The record followed here is PMC6273599, “Sesquiterpenoids and Diterpenoids from the Wood of Cunninghamia konishii and Their Inhibitory Activities against NO Production” (Molecules, 2016).

Values after ≈ are worked out from the molar mass of the structure shown. A value given as a limit tells only on which side of the number the result lay.

Common to all, as to type: cell-based, murine
Data set [1] relates to RAW 264.7 cells. Nature of the data set: Cell viability / cytotoxicity (MTT). To be noted: 24 h with test compound in presence of 100 ng/mL LPS, mean ± SD of three replicates. The source says:
(§1) Nitric oxide (NO) is derived from the oxidation of L-arginine by NO synthase (NOS) and is recognized as a mediator and regulator in biological actions, especially in inflammatory responses. In inflammation and carcinogenesis conditions, there is an increased production of NO by inducible NO synthase (iNOS). Thus, inhibitors of NO might be of therapeutic importance in preventing pathological conditions catalyzed by inflammation. Macrophages contain various chemical mediators that may be responsible for several inflammatory stages and have been expected to be an origin of inflammation. iNOS mainly exists in macrophages and can be induced by pro-inflammatory agents lipopolysaccharides (LPS). […] In this study, the inhibitory activity toward NO production of four sesquiterpenoids (1, 4, 5, and 6) and eight diterpenoids (8–15) was evaluated by measurement of nitrite/nitrate in LPS-stimulated RAW 264.7 cells. To search for the appropriate concentrations for the above assay, these 12 compounds were first tested their cytotoxic activity against the RAW 264.7 cells, and no significant cytotoxic activities were observed under all tested concentrations (Table 3).
(§2) A murine macrophage cell line RAW264.7 (BCRC No. 60001) was obtained from the Bioresources Collection and Research Center (BCRC) of the Food Industry Research and Development Institute (Hsinchu, Taiwan). Cells were maintained in Dulbecco’s Modified Eagle Medium (DMEM, Sigma, St. Louis, MO, USA) supplemented with 10% fetal bovine serum (FBS, Sigma). Cells were cultured in a humidified atmosphere with 5% CO2 at 37 °C and subcultured every three days at a dilution of 1:5 using 0.05% trypsin-0.02% EDTA in Ca^2+-, Mg^2+-free phosphate-buffered saline (DPBS).
(§3) Cells (2 × 10^5) were cultured in 96-well plate containing DMEM supplemented with 10% FBS. After 24 h of cells incubation, cells were cultured with test compounds in the presence of 100 ng/mL LPS (lipopolysaccharide) for 24 h. Untreated cells served as the control. After that, the cells were washed twice with DPBS and 100 μL of 0.5 mg/mL MTT was added to each well for further 2 h incubation at 37 °C. The medium was then discarded, and the colored crystals of produced formazan were dissolved in 100 μL dimethyl sulfoxide (DMSO). After 30 min incubation, the absorbance was measured at 570 nm on a microplate reader (Molecular Devices).
(§4) The data is expressed as means ± standard errors (SE). The IC50 values were calculated from the dose curves using a non-linear regression algorithm (SigmaPlot 8.0; SPSS Inc., Chicago, IL, USA, 2002). Statistical evaluation was carried out by one-way analysis of variance (ANOVA followed by Scheffe’s multiple range tests).

Data set [2] concerns LPS-stimulated RAW 264.7 cells. Put plainly: Inhibition of LPS-induced nitric oxide production (Griess nitrite measurement). To be noted: LPS (100 ng/mL)-stimulated RAW 264.7 cells, 24 h, Griess reaction, mean ± SD of three replicates; for IC50: Mus musculus, RAW264.7, read-out: Inhibition of NO Production IC50.
Description: as §1, §2
The anti-inflammatory activity of compounds was evaluated by using a nitric oxide (NO) inhibitory activity assay. As a stable NO metabolite, production of NO was indirectly determined by Griess reaction to measure the concentration of nitrite in the culture medium. The cells were incubated with test compounds (0, 2.5, 5, 10, 20 and 40 μg/mL) in the presence of LPS (100 ng/mL) at 37 °C for 24 h. Then, cells were dispensed into 96-well plates, and 100 μL of each supernatant was reacted with an equal volume of Griess reagent (1% sulfanilamide, 0.1% naphthyl ethylenediamine dihydrochloride and 5% phosphoric acid) and incubated at room temperature for 10 min. Absorbance was then measured at 540 nm using a Micro-Reader (Molecular Devices Orleans Drive, Sunnyvale, CA, USA). A standard curve was generated, using freshly prepared 0–100 μM […] dissolved in assay buffer, to quantitate unknown nitrite in samples.
as §4
(In general: Nitrite, measured by Griess reagent, commonly stands in for NO production.)

Data set [3] can be described thus: Cell viability / cytotoxicity (MTT). Conditions: mouse, RAW 264.7 macrophage cells, RAW 264.7 cells, 24 h with test compound in presence of 100 ng/mL LPS, mean ± SD of three replicates.
Description: as §1, §2, §3, §4

Turning to `CC(=O)OC(C)(C)C1CCC2(C)CCCC(C)(O)C2C1` (stereo not drawn) [Compound 5, 11-acetoxyeudesman-4α-ol], the “Cytotoxicity IC50” value in data set [1] is greater than 20 µg/mL. Further, the “Inhibition of NO Production IC50” value in data set [2] was greater than 20 µg/mL.

Regarding `CC1CCC2(C)CC3CCC12C(O)C3(C)C` (stereo not drawn) [Compound 1, 2α-hydroxy-3,3,6α,9β-tetramethyltricyclo[4,3,2^1,4]undecane], the concentration for half-maximal inhibition (IC50) – broadly, the concentration at which inhibition is half-maximal – at 24 h in data set [3] was greater than 20 µg/mL. The half-maximal inhibitory concentration (IC50) in data set [2] is greater than 20 µg/mL.

Turning to `C=CC(C)(O)CCC1C(C)(O)CCC2C(C)(C)CCCC21C` (centres unmarked) [Compound 15], the IC50 at 24 h in data set [3] was greater than 20 µg/mL. The IC50 in data set [2] is 13.1 ± 0.55 µg/mL (≈ 42.4 µM).

As to `C=CC(=C)CCC1C(C)(O)CCC2C(C)(C=O)CCCC12C` (centres unmarked) [Compound 11], in data set [3], the concentration for half-maximal inhibition (IC50) at 24 h was greater than 20 µg/mL. The IC50 in data set [2] is greater than 20 µg/mL.

With `C=C1CCC2C(C)(C(=O)O)CCCC2(C)C1CC1OCC=C1C` (centres unmarked) [Compound 14], the IC50 at 24 h in data set [3] is greater than 20 µg/mL. Moreover, the IC50 in data set [2] was greater than 20 µg/mL.

On to `CC(=O)OC(C)(C)C1CCC2(C)CCCC(C)(O)C2C1` (stereo not drawn) [Compound 4, 11-acetoxyeudesman-4β-ol], for which the IC50 at 24 h in data set [3] is greater than 20 µg/mL. For the same compound, the concentration for half-maximal inhibition (IC50) in data set [2] was greater than 20 µg/mL.

In the case of `C=C1CCC2C(C)(CO)CCCC2(C)C1C=CC(C)=O` (centres unmarked) [Compound 12], the 50% inhibitory concentration (IC50) at 24 h in data set [3] is greater than 20 µg/mL. The IC50 in data set [2] is greater than 20 µg/mL.

Turning to `C=CC(C)=CCC1C(=C)CCC2C(C)(CO)CCCC12C` (centres unmarked) [Compound 9, elliotinol], the IC50 at 24 h in data set [3] is greater than 20 µg/mL. The IC50 in data set [2] is greater than 20 µg/mL.

Take `COc1ccc2c(c1)c(CC(=O)O)c(C)n2C(=O)c1ccc(Cl)cc1` [indomethacin, reference compound]: the IC50 at 24 h in data set [3] was greater than 100 µg/mL. In data set [2], the IC50 was 65.4 ± 1.8 µg/mL (≈ 183 µM).

`CC(=O)C=CC1C(C)(O)CCC2C(C)(C)CCCC21C` (stereo not drawn) [Compound 10, 8α-hydroxy-15,16-bisnorlabda-11-en-13-one]: the IC50 at 24 h in data set [3] was greater than 20 µg/mL. Also, the IC50 in data set [2] is 11.4 ± 0.62 µg/mL (≈ 41.1 µM).

As for `Cc1ccc(C(C)C)c2c1[C@H](O)[C@@H](O)[C@@H](C)C2` [Compound 6, 2α,3β-dihydroxy-4β-methyl-6,8,10-cadinatriene], the IC50 at 24 h in data set [3] was greater than 20 µg/mL. Moreover, the IC50 in data set [2] is greater than 20 µg/mL.

`C=C[C@]1(C)C=C2CC[C@@H]3[C@](C)(CCC[C@@]3(C)C(=O)O)[C@H]2CC1` [Compound 8, sandaracopimaric acid]: in data set [3], the IC50 at 24 h was greater than 20 µg/mL. For the same compound, the IC50 in data set [2] was greater than 20 µg/mL.

Consider `C=CC1(C)OC2(C)CCC3C(C)(CO)CCCC3(C)C2CC1O` (centres unmarked) [Compound 13], for which the IC50 at 24 h in data set [3] was greater than 20 µg/mL. Besides, in data set [2], the IC50 is greater than 20 µg/mL.
